Results as given in US20240190880A1 (THE REGENTS OF THE UNIVERSITY OF MICHIGAN, priority 2021, published 2024).

target: T1, ER (Homo sapiens, UniProt P03372); experiment: ER degradation activity, in-cell western blot analysis in T47D cells; format: cell-based; conditions: 16 hours, Table A does not say which cell line (T47D or MCF7), read-out: Potency (DC50)
T1 construct: host or cells: T47D and MCF7 human breast cancer cells
T1 sequence (P03372 1-595): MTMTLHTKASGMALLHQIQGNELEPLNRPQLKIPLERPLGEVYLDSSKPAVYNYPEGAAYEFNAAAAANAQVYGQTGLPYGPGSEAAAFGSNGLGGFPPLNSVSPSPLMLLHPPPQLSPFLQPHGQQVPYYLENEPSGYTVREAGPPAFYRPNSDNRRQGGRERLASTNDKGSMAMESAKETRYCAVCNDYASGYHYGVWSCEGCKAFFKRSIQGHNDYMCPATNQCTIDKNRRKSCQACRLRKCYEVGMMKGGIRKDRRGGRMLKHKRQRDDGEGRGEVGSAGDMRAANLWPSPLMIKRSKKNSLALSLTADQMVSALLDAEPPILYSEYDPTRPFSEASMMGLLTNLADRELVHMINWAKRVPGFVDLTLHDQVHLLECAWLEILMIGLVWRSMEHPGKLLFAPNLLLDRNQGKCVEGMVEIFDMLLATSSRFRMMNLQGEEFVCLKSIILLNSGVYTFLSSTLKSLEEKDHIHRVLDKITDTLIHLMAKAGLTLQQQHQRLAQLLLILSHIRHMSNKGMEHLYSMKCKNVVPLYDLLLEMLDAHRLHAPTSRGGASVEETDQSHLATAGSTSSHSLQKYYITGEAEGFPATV
Procedure, shortened: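 Human T47D cells (DMEM, 10% FBS) are dosed for 16 h with 0.5% DMSO final and probed with 680- and 800-dye secondary antibodies. Relative ER is calculated against vehicle and untreated wells.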

Row | SMILES | DC50
1 | C[C@@H]1Cc2cc(O)ccc2[C@@H](c2c(F)cc(N3CC4(CCN(CC(=O)N5Cc6cc7c(cc6C5)C(=O)N(C5CCC(=O)NC5=O)C7)CC4)C3)cc2F)N1CC(C)(F)F (stereo partly drawn) [E 26, 3-(6-(2-(2-(4-((1S,3R)-2-(2,2-difluoropropyl)-6-hydroxy-3-methyl-1,2,3,4-tetrahydroisoquinolin-1-yl)-3,5-difluorophenyl)-2,7-diazaspiro[3.5]nonan-7-yl)acetyl)-1-oxo-3,5,6,7-tetrahydropyrrolo[3,4-f]isoindol-2(1H)-yl)piperidine-2,6-dione] | > 100 nM
2 | C[C@@H]1Cc2cc(O)ccc2[C@@H](c2c(F)cc(N3CC4(CCN(C(=O)CN5Cc6cc7c(cc6C5)C(=O)N(C5CCC(=O)NC5=O)C7)CC4)C3)cc2F)N1CC(C)(F)F (stereo partly drawn) [E 27, 3-(6-(2-(2-(4-((1S,3R)-2-(2,2-difluoropropyl)-6-hydroxy-3-methyl-1,2,3,4-tetrahydroisoquinolin-1-yl)-3,5-difluorophenyl)-2,7-diazaspiro[3.5]nonan-7-yl)-2-oxoethyl)-1-oxo-3,5,6,7-tetrahydropyrrolo[3,4-f]isoindol-2(1H)-yl)piperidine-2,6-dione] | > 100 nM
3 | C[C@@H]1Cc2cc(O)ccc2[C@@H](c2c(F)cc(N3CCC4(CCN(C(=O)CN5Cc6cc7c(cc6C5)C(=O)N(C5CCC(=O)NC5=O)C7)C4)C3)cc2F)N1CC(C)(F)F (stereo partly drawn) [E 28, 3-(6-(2-(7-(4-((1S,3R)-2-(2,2-difluoropropyl)-6-hydroxy-3-methyl-1,2,3,4-tetrahydroisoquinolin-1-yl)-3,5-difluorophenyl)-2,7-diazaspiro[4.4]nonan-2-yl)-2-oxoethyl)-1-oxo-3,5,6,7-tetrahydropyrrolo[3,4-f]isoindol-2(1H)-yl)piperidine-2,6-dione] | > 100 nM
4 | C[C@@H]1Cc2cc(O)ccc2[C@@H](c2c(F)cc(N3CCC(N4CCC(C(=O)N5Cc6cc7c(cc6C5)C(=O)N(C5CCC(=O)NC5=O)C7=O)CC4)CC3)cc2F)N1CC(C)(F)F (stereo partly drawn) [E 29, 6-(1′-(4-((1S,3R)-2-(2,2-difluoropropyl)-6-hydroxy-3-methyl-1,2,3,4-tetrahydroisoquinolin-1-yl)-3,5-difluorophenyl)-[1,4′-bipiperidine]-4-carbonyl)-2-(2,6-dioxopiperidin-3-yl)-6,7-dihydropyrrolo[3,4-f]isoindole-1,3(2H,5H)-dione] | > 100 nM
5 | C[C@@H]1Cc2cc(O)ccc2[C@@H](c2c(F)cc(N3CCC(N4CCC(C(=O)N5Cc6cc7c(cc6C5)C(=O)N(C5CCC(=O)NC5=O)C7)CC4)CC3)cc2F)N1CC(C)(F)F (stereo partly drawn) [E 30, 3-(6-(1′-(4-((1S,3R)-2-(2,2-difluoropropyl)-6-hydroxy-3-methyl-1,2,3,4-tetrahydroisoquinolin-1-yl)-3,5-difluorophenyl)-[1,4′-bipiperidine]-4-carbonyl)-1-oxo-3,5,6,7-tetrahydropyrrolo[3,4-f]isoindol-2(1H)-yl)piperidine-2,6-dione] | > 100 nM
6 | C[C@@H]1Cc2cc(O)ccc2[C@@H](c2c(F)cc(N3CCC4(CCN(CC(=O)N5Cc6cc7c(cc6C5)C(=O)N(C5CCC(=O)NC5=O)C7=O)C4)C3)cc2F)N1CC(C)(F)F (stereo partly drawn) [E 31, 6-(2-(7-(4-((1S,3R)-2-(2,2-difluoropropyl)-6-hydroxy-3-methyl-1,2,3,4-tetrahydroisoquinolin-1-yl)-3,5-difluorophenyl)-2,7-diazaspiro[4.4]nonan-2-yl)acetyl)-2-(2,6-dioxopiperidin-3-yl)-6,7-dihydropyrrolo[3,4-f]isoindole-1,3(2H,5H)-dione] | > 100 nM
7 | C[C@@H]1Cc2cc(O)ccc2[C@@H](c2c(F)cc(N3CCC4(CCN(CC(=O)N5Cc6cc7c(cc6C5)C(=O)N(C5CCC(=O)NC5=O)C7)C4)C3)cc2F)N1CC(C)(F)F (stereo partly drawn) [E 32, 3-(6-(2-(7-(4-((1S,3R)-2-(2,2-difluoropropyl)-6-hydroxy-3-methyl-1,2,3,4-tetrahydroisoquinolin-1-yl)-3,5-difluorophenyl)-2,7-diazaspiro[4.4]nonan-2-yl)acetyl)-1-oxo-3,5,6,7-tetrahydropyrrolo[3,4-f]isoindol-2(1H)-yl)piperidine-2,6-dione] | > 100 nM
8 | C[C@@H]1Cc2cc(O)ccc2[C@@H](c2c(F)cc(N3CCC4(CCN(CC(=O)N5Cc6cc7c(cc6C5)C(=O)N(C5CCC(=O)NC5=O)C7=O)C4)CC3)cc2F)N1CC(C)(F)F (stereo partly drawn) [E 33, 6-(2-(8-(4-((1S,3R)-2-(2,2-difluoropropyl)-6-hydroxy-3-methyl-1,2,3,4-tetrahydroisoquinolin-1-yl)-3,5-difluorophenyl)-2,8-diazaspiro[4.5]decan-2-yl)acetyl)-2-(2,6-dioxopiperidin-3-yl)-6,7-dihydropyrrolo[3,4-f]isoindole-1,3(2H,5H)-dione] | > 100 nM

Now from value to molecule:

Row | DC50 | SMILES
9 | > 100 nM | O=C1CCC(N2C(=O)c3cc4c(cc3C2=O)CN(c2ccc(CN3CC(Oc5ccc([C@@H]6c7ccc(O)cc7CC[C@@H]6c6ccccc6)cc5)C3)cn2)C4)C(=O)N1 (stereo partly drawn) [E328, 2-(2,6-dioxopiperidin-3-yl)-6-(5-((3-(4-((1R,2S)-6-hydroxy-2-phenyl-1,2,3,4-tetrahydronaphthalen-1-yl)phenoxy)azetidin-1-yl)methyl)pyridin-2-yl)-6,7-dihydropyrrolo[3,4-f]isoindole-1,3(2H,5H)-dione]
10 | 10 to 100 nM | O=C1CCC(N2C(=O)c3cc4c(cc3C2=O)CN(Cc2ccc(N3CC(Oc5ccc([C@@H]6c7ccc(O)cc7CC[C@@H]6c6ccccc6)cc5)C3)nc2)C4)C(=O)N1 (stereo partly drawn) [E329, 2-(2,6-dioxopiperidin-3-yl)-6-((6-(3-(4-((1R,2S)-6-hydroxy-2-phenyl-1,2,3,4-tetrahydronaphthalen-1-yl)phenoxy)azetidin-1-yl)pyridin-3-yl)methyl)-6,7-dihydropyrrolo[3,4-f]isoindole-1,3(2H,5H)-dione]
11 | > 100 nM | O=C1CCC(N2C(=O)c3cc4c(cc3C2=O)CN(Cc2cnc(N3CC(Oc5ccc([C@@H]6c7ccc(O)cc7CC[C@@H]6c6ccccc6)cc5)C3)nc2)C4)C(=O)N1 (stereo partly drawn) [E330, 2-(2,6-dioxopiperidin-3-yl)-6-((2-(3-(4-((1R,2S)-6-hydroxy-2-phenyl-1,2,3,4-tetrahydronaphthalen-1-yl)phenoxy)azetidin-1-yl)pyrimidin-5-yl)methyl)-6,7-dihydropyrrolo[3,4-f]isoindole-1,3(2H,5H)-dione]
12 | > 100 nM | O=C1CCC(N2C(=O)c3cc4c(cc3C2=O)CN(CC(=O)NC2CCN(c3ccc([C@@H]5c6ccc(O)cc6CC[C@@H]5c5ccccc5)cc3)CC2)C4)C(=O)N1 (stereo partly drawn) [E331, 2-(6-(2,6-dioxopiperidin-3-yl)-5,7-dioxo-3,5,6,7-tetrahydropyrrolo[3,4-f]isoindol-2(1H)-yl)-N-(1-(4-((1R,2S)-6-hydroxy-2-phenyl-1,2,3,4-tetrahydronaphthalen-1-yl)phenyl)piperidin-4-yl)acetamide]
13 | > 100 nM | O=C1CCC(N2C(=O)c3cc4c(cc3C2=O)CN(CCC(=O)NC2CCN(c3ccc([C@@H]5c6ccc(O)cc6CC[C@@H]5c5ccccc5)cc3)CC2)C4)C(=O)N1 (stereo partly drawn) [E332, 3-(6-(2,6-dioxopiperidin-3-yl)-5,7-dioxo-3,5,6,7-tetrahydropyrrolo[3,4-f]isoindol-2(1H)-yl)-N-(1-(4-((1R,2S)-6-hydroxy-2-phenyl-1,2,3,4-tetrahydronaphthalen-1-yl)phenyl)piperidin-4-yl)propanamide]
14 | > 100 nM | CN(CC1CN(c2ccc([C@@H]3c4ccc(O)cc4CC[C@@H]3c3ccccc3)cc2)C1)C1CCC(N2Cc3cc4c(cc3C2)C(=O)N(C2CCC(=O)NC2=O)C4=O)CC1 (stereo partly drawn) [E333, 2-(2,6-dioxopiperidin-3-yl)-6-(4-(((1-(4-((1R,2S)-6-hydroxy-2-phenyl-1,2,3,4-tetrahydronaphthalen-1-yl)phenyl)azetidin-3-yl)methyl)(methyl)amino)cyclohexyl)-6,7-dihydropyrrolo[3,4-f]isoindole-1,3(2H,5H)-dione]
15 | > 100 nM | O=C1CCC(N2C(=O)c3cc4c(cc3C2=O)CN([C@H]2CC[C@@H](NC3CCN(c5ccc([C@@H]6c7ccc(O)cc7CC[C@@H]6c6ccccc6)cc5)CC3)CC2)C4)C(=O)N1 (stereo partly drawn) [E334, 2-(2,6-dioxopiperidin-3-yl)-6-((1S,4s)-4-((1-(4-((1R,2S)-6-hydroxy-2-phenyl-1,2,3,4-tetrahydronaphthalen-1-yl)phenyl)piperidin-4-yl)amino)cyclohexyl)-6,7-dihydropyrrolo[3,4-f]isoindole-1,3(2H,5H)-dione]
16 | > 100 nM | C[C@@H]1Cc2cc(O)ccc2[C@@H](c2c(F)cc(N3CC4(CCN(CC(=O)N5Cc6cc7c(cc6C5)C(=O)N(C5CCC(=O)NC5=O)C7=O)CC4)C3)cc2F)N1CC(C)(F)F (stereo partly drawn) [E 25, 6-(2-(2-(4-((1S,3R)-2-(2,2-difluoropropyl)-6-hydroxy-3-methyl-1,2,3,4-tetrahydroisoquinolin-1-yl)-3,5-difluorophenyl)-2,7-diazaspiro[3.5]nonan-7-yl)acetyl)-2-(2,6-dioxopiperidin-3-yl)-6,7-dihydropyrrolo[3,4-f]isoindole-1,3(2H,5H)-dione]
